Patent EP2949653A1, “ISOXAZOLE DERIVATIVES AS LEUKOTRIENE BIOSYNTHESIS INHIBITORS” (Banoglu, Erden, priority 2014, dated 2015)
Like-named read-outs stand apart in the source and are kept apart here.

What was measured:
[1] = tested on: 5-LO mediated product formation; assay: 5-LO mediated product formation in intact neutrophils stimulated with A23187 (cell-based); design: species or system human; conditions: for IC50: Neutrophil, intact human neutrophils stimulated with 2.5 µM A23187, mean ± SE, n = 3-4, read-out: Inhibition of purified 5-LO activity IC50 (µM) cell based; for activity at 1 µM / activity at 10 µM: PMNL, human neutrophils, 2.5 µM A23187, means ± SE, n = 3-6; for activity at 1 µM: remaining activity at 1 µM inhibitor, read-out: 5-LO mediated product formation in intact neutrophils (PMNL) (% of control) at 1 µM; for activity at 10 µM: remaining activity at 10 µM inhibitor, read-out: 5-LO mediated product formation in intact neutrophils (PMNL) (% of control) at 10 µM
Protocol: (§1) Cell based and cell-free assays carried out in biological studies, immunofluorescence microscopy analysis and zymosan-induced peritonitis in mice are performed as described hereinabove (Pegola, C. and et al., British J. Pharmacology, 2014, D01:10.1111/bph.12625). In the cell based assays (intact neutrophils or monocytes), 5-LO mediated product formation is started, after pre-incubation with test compounds (or control DMSO) for 15 min. at 37 °C, with addition of Ca-ionophore A23187 (2.5 µM) to the fresh 5 x 10^6 neutrophils or monocytes suspended in 1 ml of PGC buffer (phosphate buffered saline (PBS) solution containing 1 mg ml^-1 glucose and 1mM CaCl2, pH 7.4). After the incubation for 10 min. at 37 °C, the reaction is ended with addition of 1 ml of methanol, and 30 µL 1 N HCl, 200 ng prostaglandin B1 and 500 µL PBS are added to the mixture. In cell-free assays (isolated 5-LO and cell homogenates), human recombinant 5-LO protein or 40,000g supernatant is added to 1 ml of 5-LO reaction mixture (PBS, pH 7.4, 1 mM EDTA, 1 mM ATP), and then incubated with test compounds (or control DMSO) for 10 min. at 4°C, heated to 37 °C and 2 mM CaCl2 as well as AA at certain concentrations are added. The reaction is ended as described for the cell-based assays. Resulting 5-LO mediated products are extracted and analysed by the known method of high pressure liquid chromatography (HPLC) (Pergola, C. Proc Natl. Acad. Sci. U.S.A. 2008, 105, 19881). 5-LO mediated product formation (LTB4 and all trans isomers, and 5 (S)-hydro(pero)xy-6-trans-8, 11, 14-cis-eicosatetraenoic acid, 5-H(p)ETE) is expressed as ng per 10^6 cell. Cysteinyl-LTs have not been analyzed because that the amount of C4, D4 and E4 and LTB4 oxidation products are below the detection limit.
(§2) Compounds were tested in intact human neutrophils stimulated with 2.5 µM A23187 under cell based conditions and on purified 5-LO under cell free conditions. ^aData are given as remaining activity as a percentage of control (100%) at 10 µM or 1 µM inhibitor concentrations (means ± SE, n = 3-6).
Compound 9hj inhibited 5-LO mediated product formation with IC50 of 60 nM in human neutrophils. Neutrophils are stimulated with Ca-ionophore A23187 (2.5 µM), without the addition of exogenous arachidonic acid (AA), after pre-incubation with 9hj or vehicle (0.1 % DMSO). 100% controls correspond to 275.7 ng mL^-1 of 5-LO mediated products (Figure 1).
100% controls correspond to 328.97 ng mL^-1 of 5-LO mediated products.

purified 5-LO [2] = molecular target: T1, purified 5-LO (Homo sapiens, UniProt P09917); assay: Purified / human recombinant 5-LO activity (cell-free); type: biochemical; conditions: purified 5-LO under cell free conditions; mean ± SE, n = 3-4; read-out: Inhibition of purified 5-LO activity IC50 (µM) cell-free
T1 sequence (P09917 1-674): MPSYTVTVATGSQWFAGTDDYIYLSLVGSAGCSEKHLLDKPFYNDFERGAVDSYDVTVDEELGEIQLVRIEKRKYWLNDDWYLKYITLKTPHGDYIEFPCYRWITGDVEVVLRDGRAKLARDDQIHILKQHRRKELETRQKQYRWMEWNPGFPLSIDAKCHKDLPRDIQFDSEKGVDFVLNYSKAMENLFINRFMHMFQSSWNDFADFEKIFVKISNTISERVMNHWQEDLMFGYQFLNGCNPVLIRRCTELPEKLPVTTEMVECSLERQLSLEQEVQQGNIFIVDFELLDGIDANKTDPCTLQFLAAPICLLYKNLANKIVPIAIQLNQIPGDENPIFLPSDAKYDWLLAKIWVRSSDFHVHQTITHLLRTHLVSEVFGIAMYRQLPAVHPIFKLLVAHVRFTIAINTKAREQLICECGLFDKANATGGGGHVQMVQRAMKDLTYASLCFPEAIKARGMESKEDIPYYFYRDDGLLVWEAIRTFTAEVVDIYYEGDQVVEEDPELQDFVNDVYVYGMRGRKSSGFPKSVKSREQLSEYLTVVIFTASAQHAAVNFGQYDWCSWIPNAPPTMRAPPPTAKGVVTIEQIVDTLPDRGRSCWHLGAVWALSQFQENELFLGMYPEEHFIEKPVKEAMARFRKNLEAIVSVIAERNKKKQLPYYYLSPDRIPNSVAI
Protocol: as §1, §2
9hj was added 15 min before addition of 2 mM Ca^2+ plus 3 µM, 10 µM and 30 µM AA. 100% controls correspond to 200.35 ng mL^-1 for 3 µM AA, 514.36 ng mL^-1 for 10 µM AA and 537.73 ng mL^-1 for 30 µM AA.

purified 5-LO [3] = molecular target: T1, purified 5-LO; assay: as above; type: biochemical; conditions: remaining 5-LO activity (percentage of uninhibited control) at 30 µM test compound
[4] = tested on: 5-LO mediated product formation; conditions: literature value, Banoglu et al. Bioorg. Med. Chem. 2012, 20, 3728; read-out: IC50PMNL (cell-based assay); cited from earlier work
purified 5-LO [5] = molecular target: T1, purified 5-LO; conditions: literature value, Banoglu et al. Bioorg. Med. Chem. 2012, 20, 3728; read-out: IC50cell-free; cited from earlier work

SMILES	IC50 [1] [µM]	IC50 (purified 5-LO [2]) [µM]	remaining activity at 30 µM (purified 5-LO [3]) [%]	activity at 1 µM [1] [%]	activity at 10 µM [1] [%]	IC50 [4] [nM]	IC50 (purified 5-LO [5]) [nM]
Cc1ccc(COc2ccc(-c3onc(C(=O)O)c3-c3ccc(Cl)cc3)c(C)c2)cc1 [Compound 9ck, 4-(4-Chlorophenyl)-5-(2-methyl-4-((4-methylbenzyl)oxy)phenyl)isoxazole-3-carboxylic acid]	1.2 ± 0.11	> 30	53	51 ± 6.68	2.26 ± 1.86		
Cc1cc(OCc2ccccc2Cl)ccc1-c1onc(C(=O)O)c1-c1ccc(Cl)cc1 [Compound 9ek, 5-(4-((2-Chlorobenzyl)oxy)-2-methylphenyl)-4-(4-chlorophenyl)isoxazole-3-carboxylic acid]	1.45 ± 0.09	> 30	51	54.9 ± 6.46	2.86 ± 2.59		
Cc1cc(OCc2ccccc2C(F)(F)F)ccc1-c1onc(C(=O)O)c1-c1ccc(Cl)cc1 [Compound 9fk, 4-(4-Chlorophenyl)-5-(2-methyl-4-((2-(trifluoromethyl)benzyl)oxy)phenyl)isoxazole-3-carboxylic acid]	0.82 ± 0.17	> 30	62	44 ± 10.3	3.48 ± 3.05		
Cc1cc(OCc2ccccn2)ccc1-c1onc(C(=O)O)c1-c1ccc(Cl)cc1 [Compound 9gk, 4-(4-Chlorophenyl)-5-(2-methyl-4-(pyridin-2-ylmethoxy)phenyl)isoxazole-3-carboxylic acid]	1.81 ± 0.11	> 30	73	73.2 ± 7.42	0.45 ± 0.45		
Cc1cc(OCc2ccc3ccccc3n2)ccc1-c1onc(C(=O)O)c1-c1ccc(Cl)cc1 [Compound 9hk, 4-(4-Chlorophenyl)-5-(2-methyl-4-(quinolin-2-ylmethoxy)phenyl)isoxazole-3-carboxylic acid]	9.07 ± 1.98	> 30	75	69.1 ± 5.53	44.2 ± 15.7		
Cc1ccccc1COc1ccc(-c2onc(C)c2-c2ccc(Cl)cc2)c(O)c1 [Compound A, reference compound]	4.42 ± 1.13	1.9 ± 0.46		66.7 ± 11.5	3 ± 0.7	4400	1900

More lines, main results first:

IC50 [1] [µM]	IC50 (purified 5-LO [2]) [µM]	remaining activity at 30 µM (purified 5-LO [3]) [%]	SMILES	activity at 1 µM [1] [%]	activity at 10 µM [1] [%]	IC50 [4] [nM]	IC50 (purified 5-LO [5]) [nM]
2.08 ± 0.33	0.5 ± 0.03		Cc1ccccc1COc1ccc(-c2onc(C(=O)O)c2-c2cccc(Cl)c2)cc1 [Compound 10aj, 4-(3-Chlorophenyl)-5-(4-((2-methylbenzyl)oxy)phenyl)isoxazole-3-carboxylic acid]	84.5 ± 9.1	0.7 ± 0.7		
1.64 ± 0.11	0.38 ± 0.03		O=C(O)c1noc(-c2ccc(OCc3cccc(F)c3)cc2)c1-c1cccc(Cl)c1 [Compound 10bj, 4-(3-Chlorophenyl)-5-(4-((3-fluorobenzyl)oxy)phenyl)isoxazole-3-carboxylic acid]	66.7 ± 8.5	8.4 ± 5.1		
0.82 ± 0.19	1.12 ± 0.14		Cc1cc(OCc2cccc(F)c2)ccc1-c1onc(C(=O)O)c1-c1cccc(Cl)c1 [Compound 10bk, 4-(3-Chlorophenyl)-5-(4-((3-fluorobenzyl)oxy)-2-methylphenyl)isoxazole-3-carboxylic acid]	48.6 ± 7.9	9.8 ± 3.6		
